Where a name gives a salt, the structure may show the parent alone.

We go through 6 compounds from patent US7417038B1, “Methods of treating cachexia” (Imperial Innovations Limited, priority 1998, dated 2008).

Data set [1] in a line: Treatment of a hypertensive patient with Atenolol (with co-medication): body weight. Format: in vivo, human. Conditions: baseline 85.6 kg, Atenolol 50 mgs OD with Losartan, Bendrofluazide, Doxazosin, 11 months. The method, then:
A hypertensive patient presented weighing 85.6 kg. They were treated with Losartan 50 mgs OD, Bendrofluazide 2-5 mgs OD, Doxazosin 1 mg OD and Atenolol, a β-blocker, 50 mgs OD. In 11 months their weight increased to 94.3 kg.

Data set [2] in a line: Carvedilol treatment of a cachectic CHF patient: body weight, body composition (bioelectrical impedance), clinical status. It counts as in vivo, human. Conditions: one cachectic CHF patient.
Data set [3] can be described thus: Carvedilol treatment of a cachectic CHF patient: symptom limited treadmill exercise testing. The following applies: one cachectic CHF patient, Carvedilol 3.125 mg to 12.5 mg twice daily, follow-up vs baseline. It counts as in vivo, human.
For another data set, the target named is T1, ETA receptor (Homo sapiens, UniProt P25101).
T1 sequence (P25101 21-427): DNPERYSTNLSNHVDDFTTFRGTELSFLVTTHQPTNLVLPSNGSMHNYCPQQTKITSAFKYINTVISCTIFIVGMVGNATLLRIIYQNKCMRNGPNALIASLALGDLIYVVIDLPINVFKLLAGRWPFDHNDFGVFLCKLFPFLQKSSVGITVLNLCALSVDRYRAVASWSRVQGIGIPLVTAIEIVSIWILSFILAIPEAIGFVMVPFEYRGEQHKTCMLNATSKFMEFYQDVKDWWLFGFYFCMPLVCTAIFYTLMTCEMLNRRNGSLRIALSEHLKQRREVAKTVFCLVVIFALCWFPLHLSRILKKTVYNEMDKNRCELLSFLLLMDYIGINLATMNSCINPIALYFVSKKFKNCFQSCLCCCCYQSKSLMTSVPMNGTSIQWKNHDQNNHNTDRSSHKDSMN
Conditions: cited from earlier work; for selectivity for the ETA receptor versus the ETB receptor: ETA vs ETB.

Data set [4] deals with T2, human cloned ETA receptors (Homo sapiens, UniProt P25101).
T2 sequence (P25101 21-427): T1 sequence (P25101 21-427)
The following applies: cited from earlier work.

Data set [5] can be described thus: Spironolactone treatment of a cachectic CHF patient: symptom limited treadmill exercise testing. It counts as in vivo, human. Conditions: one cachectic CHF patient, spironolactone 25 mg once daily, follow-up vs baseline. As to the method: The patient had good compliance in taking spironolactone.
Treadmill exercise testing: The patient underwent symptom limited treadmill exercise testing. A standard Bruce protocol was used. The patient breathed through a one-way valve connected to a commercially available respiratory gas analyser (MedGraphics Inc., USA) and minute ventilation and oxygen consumption were recorded on line every 15 seconds. The patient was encouraged to exercise to exhaustion. Exercise time and oxygen consumption at peak exercise adjusted for total body weight (peak VO2 in ml/kg/min) was measured as an index of the exercise capacity. One day prior to the intended baseline exercise test an additional exercise test was performed to familarise the patient with the test procedure.

Data set [6] is described as follows: Spironolactone treatment of a cachectic CHF patient: body weight and clinical status. The following applies: one cachectic CHF patient, spironolactone 25 mg once daily.
Setting [7] is: Carvedilol, without development of oedema.
[8] abbreviates: without development of any oedema.

For the compound `CC(C)NCC(O)COc1ccc(CC(N)=O)cc1` (centres unmarked) [Atenolol], the “body weight after treatment” value in data set [1] worked out at 94.3 kg.

For `COc1ccccc1OCCNCC(O)COc1cccc2[nH]c3ccccc3c12` (centres unmarked) [Carvedilol], in data set [2] (Carvedilol 3.125 mg to 12.5 mg twice daily), the “tolerability of the treatment” value is “tolerated the treatment well”. Also, in data set [2] (Carvedilol 3.125 mg to 12.5 mg twice daily, bioelectrical impedance), the “increase in lean muscle tissue” value was determined as 1.8 kg. Besides, in data set [2] (setting [7]), the body weight increase amounted to 2.1 kg and the “body weight increase (percent)” value worked out at 3.1%. In data set [3], the VE/VCO2-slope decrease was 15.5% and the “peak VO2 increase” value is listed as 15%.

For `COc1ccccc1Oc1c(NS(=O)(=O)c2ccc(C)cn2)nc(-c2ccnc(-c3nnn[nH]3)c2)nc1OCCO` [Ro 61-1790, 5-methyl-pyridine-2-sulfonic acid 6-(2-hydroxy-ethoxy)-5-(2-methoxy-phenoxy)-2-(2-1H-tetrazol-5-yl-+++pyridin-4-yl)-pyrimidin-4-ylamide], the “selectivity for the ETA receptor versus the ETB receptor” value on ETA receptor was “approximately 1000 fold”. Moreover, the “affinity to ETA receptor” value at ETA receptor (competitive ET antagonist) is on record as “subnanomolar range”.

In the case of `Cc1ccc(-c2c(NS(=O)(=O)c3ccc(C(C)(C)CO)cc3)ncnc2OCCOc2ncc(Br)cn2)cc1` [T-0201, N-(6-(2-(5-bromopyrimidin-4-yl)-4-(2-hydroxy-1,1-dimethylethyl)-benzensulfonamidesodium salt sesquihydrate], the “effect on specific binding of [125I]-ET-1” value in data set [4] is “competitively antagonized the specific binding”.

On to `CCCCN(CCCC)C(=O)CN1C[C@H](c2cc(OC)c3c(c2)OCO3)[C@@H](C(=O)O)[C@@H]1CC(C)(C)CCC` [A-216546], for which the “selectivity for the ETA receptor versus the ETB receptor” value at ETA receptor is recorded as > 25,000 fold.

Consider `CC(=O)S[C@@H]1CC2=CC(=O)CC[C@]2(C)[C@H]2CC[C@@]3(C)[C@@H](CC[C@@]34CCC(=O)O4)[C@H]12` [spironolactone], for which, in data set [5], the exercise time increase worked out at 53% and the “peak VO2 increase” value turned out to be 79%. In data set [6], the “New York Heart Association functional class (NYHA class) change” value is “class III symptoms to class II symptoms” and the “side effects of the treatment” value is reported as “no side effects”. Further, in data set [6] (setting [8]), the body weight increase was determined as 1.5 kg and the “body weight increase (percent)” value turned out to be 2%.
